Test results taken from ChEMBL document CHEMBL3046579, “Synthesis, anticancer and MRP1 inhibitory activities of 4-alkyl/aryl-3,5-bis(carboethoxy/carbomethoxy)-1,4-dihydro-2,6-dimethylpyridines” (Med Chem Res, 2013).

How the values were obtained:
HT-29 = assay: Cytotoxicity against Homo sapiens (human) HT-29 cells assessed as cell viability after 48 hr by MTT assay; type: functional, cell-based
[1] = Cytotoxicity against Homo sapiens (human) MDA-MB cells assessed as cell viability after 48 hr by MTT assay; type: functional, cell-based
[2] = Cytotoxicity against Homo sapiens (human) HSG cells; type: functional, cell-based
HSC-2 = assay: Cytotoxicity against Homo sapiens (human) HSC2 cells; type: functional, cell-based
[3] = molecular target: T1, Multidrug resistance-associated protein 1 (Homo sapiens, UniProt P33527); assay: Inhibition of Homo sapiens (human) MRP1 expressed in Sf9 cell membranes assessed as decrease in N-ethyl-maleimide-glutathione-induced inorganic phosphate production at 1 to 1000 uM by spectrophotometric analysis in presence of glutathione
T1 sequence (P33527 whole entry): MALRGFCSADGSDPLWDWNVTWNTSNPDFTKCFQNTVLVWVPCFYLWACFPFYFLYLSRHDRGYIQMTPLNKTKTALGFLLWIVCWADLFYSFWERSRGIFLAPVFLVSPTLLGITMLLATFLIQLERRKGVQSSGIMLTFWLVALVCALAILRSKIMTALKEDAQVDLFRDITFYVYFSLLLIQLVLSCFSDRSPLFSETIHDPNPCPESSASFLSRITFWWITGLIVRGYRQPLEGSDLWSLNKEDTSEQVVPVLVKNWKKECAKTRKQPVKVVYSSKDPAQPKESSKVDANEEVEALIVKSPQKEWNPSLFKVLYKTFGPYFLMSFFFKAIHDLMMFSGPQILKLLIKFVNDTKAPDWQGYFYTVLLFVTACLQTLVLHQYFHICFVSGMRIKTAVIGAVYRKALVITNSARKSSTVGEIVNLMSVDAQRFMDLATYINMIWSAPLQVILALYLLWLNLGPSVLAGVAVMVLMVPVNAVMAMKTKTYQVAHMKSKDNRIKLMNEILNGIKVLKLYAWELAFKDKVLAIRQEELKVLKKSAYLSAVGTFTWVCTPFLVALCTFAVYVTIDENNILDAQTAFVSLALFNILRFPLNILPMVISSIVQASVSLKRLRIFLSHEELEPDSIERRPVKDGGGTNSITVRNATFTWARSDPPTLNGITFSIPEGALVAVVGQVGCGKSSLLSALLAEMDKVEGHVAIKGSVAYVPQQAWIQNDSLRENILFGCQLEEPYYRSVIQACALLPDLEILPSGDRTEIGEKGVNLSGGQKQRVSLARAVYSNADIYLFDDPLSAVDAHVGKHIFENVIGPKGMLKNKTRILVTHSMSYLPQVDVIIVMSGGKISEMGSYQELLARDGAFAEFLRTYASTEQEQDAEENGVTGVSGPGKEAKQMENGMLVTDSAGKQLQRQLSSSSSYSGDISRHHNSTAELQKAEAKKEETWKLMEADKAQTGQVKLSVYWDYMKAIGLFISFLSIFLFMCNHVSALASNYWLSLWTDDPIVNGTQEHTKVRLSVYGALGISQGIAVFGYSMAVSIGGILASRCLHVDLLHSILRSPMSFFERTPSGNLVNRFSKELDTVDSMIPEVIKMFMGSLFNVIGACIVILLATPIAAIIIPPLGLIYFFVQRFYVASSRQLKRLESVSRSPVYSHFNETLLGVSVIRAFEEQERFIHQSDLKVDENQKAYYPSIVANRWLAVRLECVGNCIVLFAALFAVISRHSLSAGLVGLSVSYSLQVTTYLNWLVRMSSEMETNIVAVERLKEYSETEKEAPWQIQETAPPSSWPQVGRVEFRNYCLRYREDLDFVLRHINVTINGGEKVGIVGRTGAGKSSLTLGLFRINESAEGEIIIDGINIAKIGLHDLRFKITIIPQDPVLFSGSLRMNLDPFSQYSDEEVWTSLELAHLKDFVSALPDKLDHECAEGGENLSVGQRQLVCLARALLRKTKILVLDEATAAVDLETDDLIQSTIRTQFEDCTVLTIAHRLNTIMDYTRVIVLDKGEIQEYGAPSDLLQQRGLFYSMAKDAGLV

[4] = molecular target: T1, Multidrug resistance-associated protein 1; assay: Inhibition of Homo sapiens (human) MRP1 expressed in Sf9 cell membranes assessed as decrease in N-ethyl-maleimide-glutathione-induced inorganic phosphate production by spectrophotometric analysis in presence of glutathione
MRP1 [5] = molecular target: T2, MRP1 (Homo sapiens, UniProt P33527); assay: Inhibition of Homo sapiens (human) MRP1 expressed in Sf9 cell membranes assessed as decrease in N-ethyl-maleimide-glutathione-induced inorganic phosphate production at 50 uM by spectrophotometric analysis in presence of glutathione relative to control; conditions: Sf9 cell membranes expressing human MRP1, probe N-ethyl-maleimide-glutathione, read-out: Imax
T2 sequence (P33527 whole entry): as above

MRP1 [6] = molecular target: T2, MRP1; assay: Inhibition of Homo sapiens (human) MRP1 expressed in Sf9 cell membranes assessed as decrease in N-ethyl-maleimide-glutathione-induced inorganic phosphate production at 10 uM by spectrophotometric analysis in presence of glutathione relative to control; conditions: Sf9 cell membranes expressing human MRP1, probe N-ethyl-maleimide-glutathione
[7] = Homo sapiens, MDA-MB, 48 h, read-out: IC50
[8] = Homo sapiens, HT-29, 48 h, read-out: IC50

SMILES	IC50 (HT-29; ht-29)	IC50 ([1]; mda-mb)	inhibition (INH) [3]	IC50 [1, 7]	IC50 (HT-29; [8])	further results
COC(=O)C1=C(C)NC(C)=C(C(=O)OC)C1c1ccccc1	Not Active	Not Active	–	–	–	–
CC1=C(C(=O)c2ccccc2)C(c2ccccc2C(F)(F)F)C(C(=O)c2ccccc2)=C(C)N1	–	–	–	–	–	IC50 [2]: 8.7 µM; IC50 (HSC-2): 8.7 µM
CCCCC1C(C(=O)OCC)=C(C)NC(C)=C1C(=O)OCC	Not Active	–	Not Active	350 µM	–	–
COC(=O)C1=C(C)NC(C)=C(C(=O)OC)C1c1ccc(OC)cc1	–	Not Active	–	–	452 µM	–
CCOC(=O)C1=C(C)NC(C)=C(C(=O)OCC)C1c1cccc([N+](=O)[O-])c1	–	–	Not Active	244 µM	500 µM	–
CC1=C(C(=O)c2ccccc2)C(c2ccccc2Cl)C(C(=O)c2ccccc2)=C(C)N1	–	–	–	–	–	IC50 [2]: 28 µM; IC50 (HSC-2): 7 µM
CCOC(=O)C1=C(C)NC(C)=C(C(=O)OCC)C1c1ccc(C)cc1	–	–	–	500 µM	310 µM	–
COC(=O)C1=C(C)NC(C)=C(C(=O)OC)C1c1ccc(C)cc1	Not Active	–	Not Active	500 µM	–	–
CCCC1C(C(=O)OC)=C(C)NC(C)=C1C(=O)OC	Not Active	Not Active	–	–	–	–
CCOC(=O)C1=C(C)NC(C)=C(C(=O)OCC)C1c1ccccc1	Not Active	Not Active	–	–	–	–
CCCCC1C(C(=O)OC)=C(C)NC(C)=C1C(=O)OC	–	Not Active	–	–	500 µM	–
CCCC1C(C(=O)OCC)=C(C)NC(C)=C1C(=O)OCC	Not Active	–	Not Active	500 µM	–	–
COC(=O)C1=C(C)NC(C)=C(C(=O)OC)C1c1ccc(Cl)cc1	Not Active	–	Not Active	460 µM	–	–
CCOC(=O)C1=C(C)NC(C)=C(C(=O)OCC)C1c1ccc(OC)cc1	Not Active	–	Not Active	331 µM	–	–
CCOC(=O)C1=C(C)NC(C)=C(C(=O)OCC)C1c1ccc(Cl)cc1	–	–	–	268 µM	262 µM	IC50 [4]: 16 µM; inhibition at 50 µM (MRP1 [5]): 65%; inhibition at 10 µM (MRP1 [6]): 47%
